The results in this text go back to patent US20250051347A1, “BIFUNCTIONAL CHIMERIC HETEROCYCLIC COMPOUND AND USE THEREOF AS ANDROGEN RECEPTOR DEGRADER” (Hinova Pharmaceuticals, Inc., priority 2021, published 2025).

Molecules are shown by their SMILES. Where two headings read alike, the source gives them in different places.

One experiment concerns 22RV1 cells. The following applies: Homo sapiens, 22Rv1, 144 h.
Experiment [1] deals with T1, androgen receptor (AR) splicing variant AR-v7 (Homo sapiens, UniProt P10275).
T1 construct: The degradation activity of compounds on AR-v7 in 22RV1 cells; host or cells: 22RV1 cells
T1 sequence (P10275 1-644 isoform P10275-3): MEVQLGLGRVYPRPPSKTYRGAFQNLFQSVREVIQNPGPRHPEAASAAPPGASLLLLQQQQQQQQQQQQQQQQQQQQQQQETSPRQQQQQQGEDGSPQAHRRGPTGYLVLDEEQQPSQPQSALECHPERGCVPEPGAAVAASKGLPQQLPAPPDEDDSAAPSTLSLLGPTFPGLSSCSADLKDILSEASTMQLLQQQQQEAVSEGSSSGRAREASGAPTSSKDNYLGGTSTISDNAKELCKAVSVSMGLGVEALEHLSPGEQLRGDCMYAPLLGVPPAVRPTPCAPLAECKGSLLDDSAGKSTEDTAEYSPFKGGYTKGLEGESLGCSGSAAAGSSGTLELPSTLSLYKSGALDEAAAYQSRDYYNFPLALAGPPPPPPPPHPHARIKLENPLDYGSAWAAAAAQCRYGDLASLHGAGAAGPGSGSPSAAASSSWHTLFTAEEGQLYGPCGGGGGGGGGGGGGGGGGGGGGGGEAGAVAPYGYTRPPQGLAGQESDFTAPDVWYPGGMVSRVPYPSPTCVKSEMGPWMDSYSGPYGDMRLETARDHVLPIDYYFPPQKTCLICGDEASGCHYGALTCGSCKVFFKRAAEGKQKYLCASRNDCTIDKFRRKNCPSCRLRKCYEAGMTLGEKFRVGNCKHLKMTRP
Put plainly: Degradation activity on androgen receptor splicing variant AR-v7 in 22RV1 cells (ELISA). It is filed as cell-based. The following applies: AR-v7 degradation in 22RV1 cells, 48 h, class symbols. A general note: ELISA stands for enzyme-linked immunosorbent assay.

Setting [2] is: read-out: 22RV1 IC50 (nM), 22RV1 cells, 6 days culture, CCK-8, OD 450 nm.

On to `Cc1nc(-c2cccc(Oc3ccc(C(C)(C)c4ccc(O[C@H]5C[C@H](Nc6ccc7c(c6)C(=O)N(C6CCC(=O)NC6=O)C7=O)C5)cc4)cc3)n2)no1` (stereo partly drawn) [Example 421], for which, in the experiment with 22RV1 cells (read-out: 22RV1 IC50 (nM)), the half-maximal inhibitory concentration (IC50) (in general, the midpoint of a concentration-inhibition curve) stood at 3 nM. The DC50 (as a rule, the concentration giving 50% degradation) in experiment [1] was less than 10 nM.

With `CC(C)(c1ccc(OCCCNc2ccc3c(c2)C(=O)N(C2CCC(=O)NC2=O)C3=O)cc1)c1ccc(OCc2ccnc(-n3nccn3)n2)cc1` (stereo not drawn) [Example 229, 5-((3-(4-(2-(4-((2-(2H-1,2,3-triazol-2-yl)pyrimidin-4-yl)methoxy)phenyl)propan-2-yl)phenoxy)propyl)amino)-2-(2,6-dioxopiperidin-3-yl)isoindolin-1,3-dione], the IC50 in the experiment on 22RV1 cells (setting [2]) came out at 31 nM. The DC50 in experiment [1] lay within 11 to 100 nM.

On to `CC(C)(c1ccc(NC2CC(Nc3ccc4c(c3)C(=O)N(C3CCC(=O)NC3=O)C4=O)C2)cc1)c1ccc(OCc2ccnc(N3CC4(COC4)C3)n2)cc1` (stereo not drawn) [Example 494, 5-((3-((4-(2-(4-((2-(2-oxa-6-azaspiro[3.3]heptan-6-yl)pyrimidin-4-yl)methoxy)phenyl)propan-2-yl)phenyl)amino)cyclobutyl)amino)-2-(2,6-dioxopiperidin-3-yl)isoindolin-1,3-dione], for which the 50% inhibitory concentration (IC50) in the experiment with 22RV1 cells (setting [2]) amounted to 7 nM. Besides, the DC50 in experiment [1] is less than 10 nM.

As for `CC(=O)c1nccc(COc2ccc(C(C)(C)c3ccc(OCCNc4ccc5c(c4)C(=O)N(C4CCC(=O)NC4=O)C5=O)cc3)cc2)n1` (stereo not drawn) [Example 109, 5-((2-(4-(2-(4-((2-acetylpyrimidin-4-yl)methoxy)phenyl)propan-2-yl)phenoxy)ethyl)amino)-2-(2,6-dioxopiperidin-3-yl) isoindolin-1,3-dione], in the experiment on 22RV1 cells (setting [2]), the IC50 came to 9 nM. Moreover, the 50% degradation concentration (DC50) in experiment [1] was less than 10 nM.

Consider `CC(O)c1ccc(Oc2ccc(C(C)(C)c3ccc(O[C@H]4C[C@@H](Nc5ccc6c(c5)C(=O)N(C5CCC(=O)NC5=O)C6=O)C4)cc3)cc2)nn1` (stereo partly drawn) [Example 522], for which, in the experiment on 22RV1 cells (setting [2]), the 50% inhibitory concentration (IC50) is 7 nM. In addition, in experiment [1], the DC50 lay within 11 to 100 nM.

Regarding `CC(C)(c1ccc(Oc2cncnc2)cc1)c1ccc(O[C@H]2C[C@H](Nc3ccc4c(c3)C(=O)N(C3CCC(=O)NC3=O)C4=O)C2)cc1` (stereo partly drawn) [Example 477, 2-(2,6-dioxopiperidin-3-yl)-5-(((1r,3r)-3-(4-(2-(4-(pyrimidin-5-yloxy)phenyl)propan-2-yl)phenoxy)cyclobutyl)amino)isoindolin-1,3-dione], in the experiment on 22RV1 cells (setting [2]), the IC50 stood at 9 nM. The molecule further registered a DC50 in experiment [1] of less than 10 nM.

Consider `CC(C)(c1ccc(OCc2ccnc(-n3cnnc3)n2)cc1)c1ccc(O[C@H]2C[C@@H](Nc3ccc4c(c3)C(=O)N(C3CCC(=O)NC3=O)C4=O)C2)cc1` (stereo partly drawn) [Example 461], for which the IC50 with 22RV1 cells (setting [2]) amounted to 11 nM. The molecule also had a 50% degradation concentration (DC50) in experiment [1] of less than 10 nM.

For `CC(C)(c1ccc(OCCCNc2ccc3c(c2)C(=O)N(C2CCC(=O)NC2=O)C3=O)cc1)c1ccc(OCc2ccnc(-n3ccnc3)n2)cc1` (stereo not drawn) [Example 391, 5-((3-(4-(2-(4-((2-(1H-imidazol-1-yl)pyrimidin-4-yl)methoxy)phenyl)propan-2-yl)phenoxy)propyl)amino)-2-(2,6-dioxopiperidin-3-yl)isoindol-1,3-dione], the IC50 in the experiment on 22RV1 cells (setting [2]) came to 56 nM. Further, the DC50 in experiment [1] lay within 11 to 100 nM.

In the case of `CC(C)(c1ccc(Oc2ccnc(-n3ccnn3)n2)cc1)c1ccc(O[C@H]2C[C@H](Nc3ccc4c(c3)C(=O)N(C3CCC(=O)NC3=O)C4=O)C2)cc1` (stereo partly drawn) [Example 471, 5-(((1r,3r)-3-(4-(2-(4-((2-(1H-1,2,3-triazol-1-yl)pyrimidin-4-yl)oxy)phenyl)propan-2-yl)phenoxy)cyclobutyl)amino)-2-(2,6-dioxopiperidin-3-yl)isoindolin-1,3-dione], the IC50 in the experiment on 22RV1 cells (setting [2]) turned out to be 17 nM. In addition, the DC50 in experiment [1] is less than 10 nM.
